Test in all cases: growth of human tumour cells (NCI), 48 h
Experiment [1] relates to 786-0.
Experiment [2] concerns A498.
Experiment [3] deals with ACHN.
The test system of experiment [4] is CCRF-CEM.
In experiment [5] the test system is COLO 205.
In experiment [6] the test system is HCC 2998.
The subject of experiment [7] is HL-60.
Experiment [8] deals with HOP-62.
Experiment [9] deals with HT-29.
For experiment [10], the system named is MCF7.
The test system of experiment [11] is Malme-3M.
In experiment [12] the test system is NCI-H23.
In experiment [13] the test system is NCI-H522.
In experiment [14] the test system is OVCAR-4.
The test system of experiment [15] is OVCAR-5.
Experiment [16] relates to OVCAR-8.
For experiment [17], the system named is SK-MEL-2.
Experiment [18] concerns SR.
The test system of experiment [19] is TK-10.
In experiment [20] the test system is NCI-H226.

Each structure is given as a SMILES string.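 Step 1: Grow cells in 96-well plates. Step 2: Expose to compound for 48 hours at 5 concentrations. Step 3: Interpolate endpoints linearly; if unreached, use highest concentration. Here, GI50 denotes the concentration required for 50% inhibition of growth.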 Calls of active or inactive are those of the source. Cut-off read from the data, not from the text of the source: active = GI50 up to about 1.1 µM and inactive = higher. Where only a bound is given, the exact number is not on record here.

On to `O=C1O/C(=C\c2ccc(O)cc2)C(c2ccc(O)c(Cl)c2)=C1Br`, for which the GI50 was 13 µM (inactive) in [1]; 16.4 µM (inactive) in [2]; 13.2 µM (inactive) in experiment [3]; 5.94 µM (inactive) in experiment [4]; 19.3 µM (inactive) in [5]; 11.3 µM (inactive) in experiment [6]. The GI50 in [7] was 13.9 µM (inactive); in [8], 14.2 µM (inactive); in [9], 16.4 µM (inactive); in experiment [10] it was 16.7 µM (inactive); in experiment [11], 15.3 µM (inactive); in experiment [12], 16.1 µM (inactive). In addition, the GI50 in [13] is 6.76 µM (inactive); in experiment [14] it was 11.4 µM (inactive); in experiment [15], 18.2 µM (inactive); in experiment [16], 17.6 µM (inactive); in [17] it was 14 µM (inactive); in [18] it was 3.94 µM (inactive). Further, in [19], the GI50 is 18.9 µM (inactive).

Consider `COC(=O)C1OC2(CCCC3CC32)O[C@H]1C(=O)OC` (stereo partly drawn), for which the GI50 in experiment [1], in experiment [3], in [4], in [5], in experiment [6] and in experiment [7] was > 100 µM (inactive) throughout. For the same compound, the GI50 in experiment [8], in experiment [9], in experiment [10], in experiment [11], in experiment [20] and in experiment [12] was > 100 µM (inactive) each time. The GI50 in experiment [13], in [14], in experiment [15], in experiment [16], in [17] and in [18] was > 100 µM (inactive) throughout. Moreover, the GI50 in experiment [19] was > 100 µM (inactive).

`O=C(Nc1ccn(C2CC(O)C(COC(c3ccccc3)(c3ccccc3)c3ccccc3)O2)c(=O)n1)c1ccccc1` (stereo not drawn): the GI50 was 1.98 µM (inactive) in experiment [1]; 3.35 µM (inactive) in experiment [3]; 2.79 µM (inactive) in experiment [4]; 2.09 µM (inactive) in [5]; 7.36 µM (inactive) in [6]; 2.61 µM (inactive) in experiment [7]. Also, the GI50 in [8] is 5.62 µM (inactive); in experiment [9] it was 1.71 µM (inactive); in experiment [10] it was 2.43 µM (inactive); in [11] it was 2.61 µM (inactive); in experiment [20], 11 µM (inactive); in experiment [12] it was 1.33 µM (inactive). The GI50 was 3.6 µM (inactive) in experiment [13]; 3.24 µM (inactive) in experiment [14]; 1.87 µM (inactive) in experiment [15]; 1.97 µM (inactive) in [16]; 2.82 µM (inactive) in experiment [17]; 2.44 µM (inactive) in experiment [18].

Regarding `O=c1cnnc2sc(=S)[nH]n12`, the GI50 in [1] is 22.5 µM (inactive); in [2] it was > 100 µM (inactive); in [3], 53.5 µM (inactive); in experiment [4], 2.07 µM (inactive); in experiment [5], > 100 µM (inactive); in experiment [6], 44.5 µM (inactive). For the same compound, the GI50 in experiment [7] is 16.6 µM (inactive); in [8], 2.61 µM (inactive); in [9], 39.8 µM (inactive); in [10] it was 14.7 µM (inactive); in [11] it was 31 µM (inactive); in experiment [13], 8.45 µM (inactive). Further, the GI50 in [14] is 16.7 µM (inactive); in experiment [15] it was > 100 µM (inactive); in experiment [16], 16.4 µM (inactive); in experiment [17], > 100 µM (inactive); in experiment [18], 22.4 µM (inactive).

In the case of `COc1ccc(/C=C2/SC(c3ccccc3)N(NC(=O)CCCCCCCCC(=O)NN3C(=O)/C(=C\c4ccc(OC)c(OC)c4)SC3c3ccccc3)C2=O)cc1OC` (stereo not drawn), the GI50 in experiment [1] was 19.6 µM (inactive); in [2] it was 57.4 µM (inactive); in experiment [3], 25.6 µM (inactive); in [5] it was > 100 µM (inactive); in experiment [6], > 100 µM (inactive); in experiment [8], 35 µM (inactive). The GI50 in experiment [9] was 71.8 µM (inactive); in experiment [10], 34 µM (inactive); in [20], > 100 µM (inactive); in experiment [12], 38.4 µM (inactive); in [14], 76.7 µM (inactive); in experiment [15], > 100 µM (inactive). Besides, the GI50 was 67.8 µM (inactive) in experiment [16], 52.7 µM (inactive) in experiment [17], 15.6 µM (inactive) in [18] and > 100 µM (inactive) in experiment [19].

As for `CCCCCCCCCCCCOCCOCCOCCOCCOCCOCC(=O)NC(Cc1ccccc1)C(=O)Oc1ccc([N+](=O)[O-])cc1` (stereo not drawn), the GI50 in experiment [1] is 34.9 µM (inactive); in experiment [2], 39.6 µM (inactive); in experiment [3], 27.2 µM (inactive); in experiment [4] it was 31.7 µM (inactive); in [5], 15.8 µM (inactive); in [7], 21.9 µM (inactive). In addition, the GI50 was 40.9 µM (inactive) in experiment [8]; 33.4 µM (inactive) in experiment [9]; 38.1 µM (inactive) in [10]; 29.6 µM (inactive) in [11]; 59 µM (inactive) in experiment [20]; 32.3 µM (inactive) in experiment [12]. The GI50 in experiment [13] is 29.9 µM (inactive); in experiment [14], 40.9 µM (inactive); in experiment [15], > 100 µM (inactive); in [16], 44.5 µM (inactive); in experiment [17] it was 23.8 µM (inactive); in [18], 23.3 µM (inactive). Further, the GI50 in [19] was 38.3 µM (inactive).

`S=C(N/N=C/c1ccccn1)N1CCCCCC1`: the GI50 in experiment [1] was < 0.01 µM (active); in experiment [2] it was < 0.0391 µM (active); in [3], < 0.01 µM (active); in [4] it was < 0.01 µM (active); in experiment [5], < 0.01 µM (active); in experiment [6] it was 0.444 µM (active). Besides, the GI50 in experiment [7] was < 0.01 µM (active); in experiment [8] it was < 0.01 µM (active); in [9], < 0.01 µM (active); in experiment [10] it was < 0.01 µM (active); in [11] it was < 0.0392 µM (active); in experiment [12], < 0.01 µM (active). Besides, the GI50 is < 0.0267 µM (active) in experiment [13]; < 0.0458 µM (active) in experiment [15]; < 0.01 µM (active) in [16]; 0.0659 µM (active) in experiment [17]; < 0.01 µM (active) in experiment [18]; 0.0101 µM (active) in experiment [19].

Consider `Cc1ncc2c(n1)CCC1=C2OS(=O)(=O)CC1N(C)C` (stereo not drawn), for which the GI50 in [1] is > 100 µM (inactive); in experiment [2], 58.2 µM (inactive); in [3], > 100 µM (inactive); in [4] it was 80.5 µM (inactive); in experiment [5] it was > 100 µM (inactive); in experiment [7], > 100 µM (inactive). Further, the GI50 is 76.6 µM (inactive) in experiment [8]; > 100 µM (inactive) in [9]; > 100 µM (inactive) in experiment [10]; > 100 µM (inactive) in experiment [20]; > 100 µM (inactive) in experiment [12]; 31.8 µM (inactive) in [13]. For the same compound, the GI50 in experiment [14], in experiment [15], in experiment [16], in experiment [18] and in [19] was > 100 µM (inactive) throughout.

On to `O=C(NNC(=O)c1ccccc1O)c1ccc(O)cc1`, for which the GI50 is 46.8 µM (inactive) in [1]; > 100 µM (inactive) in [2]; 70.8 µM (inactive) in [4]; 47.8 µM (inactive) in [5]; 52.8 µM (inactive) in experiment [7]; 47.5 µM (inactive) in [8]. For the same compound, the GI50 in experiment [9] is 37.4 µM (inactive); in experiment [10], 58.9 µM (inactive); in experiment [11], 14.5 µM (inactive); in experiment [20], 14.8 µM (inactive); in [13] it was 13.1 µM (inactive); in experiment [14], 91.6 µM (inactive). For the same compound, the GI50 in [15] was > 100 µM (inactive); in experiment [16] it was 21.1 µM (inactive); in [17] it was 22.5 µM (inactive); in experiment [18] it was 49.1 µM (inactive); in experiment [19] it was > 100 µM (inactive).

`Nc1nc(Cl)cc(NCC2(CO)CC(c3ccccc3)C2)n1` (stereo not drawn): the GI50 in [1] was > 100 µM (inactive); in [2], 22.8 µM (inactive); in [3], 16.1 µM (inactive); in experiment [4], 27 µM (inactive); in [5], 29.1 µM (inactive); in experiment [7], 17.6 µM (inactive). Besides, the GI50 was > 100 µM (inactive) in [8]; 30 µM (inactive) in [9]; 22.9 µM (inactive) in experiment [10]; 46.5 µM (inactive) in [11]; 37.7 µM (inactive) in [20]; 3.57 µM (inactive) in [12]. The GI50 in [13] was 37.9 µM (inactive); in experiment [14] it was 24.4 µM (inactive); in [15], > 100 µM (inactive); in experiment [16] it was 34.7 µM (inactive); in experiment [17], 62.4 µM (inactive); in experiment [18], 7.59 µM (inactive). For the same compound, the GI50 in experiment [19] is 95.1 µM (inactive).

For the compound `CCOc1cc(C=O)ccc1O` [ETHYL VANILLIN], the GI50 is > 100 µM (inactive) in [1]; > 100 µM (inactive) in [3]; > 10 µM (inactive) in [4]; > 100 µM (inactive) in experiment [5]; > 100 µM (inactive) in experiment [6]; > 100 µM (inactive) in experiment [7]. Further, the GI50 in experiment [8], in experiment [9], in [10], in experiment [11], in [20] and in [12] was > 100 µM (inactive) each time. Further, the GI50 is > 100 µM (inactive) in experiment [13]; > 100 µM (inactive) in experiment [14]; > 100 µM (inactive) in experiment [15]; > 100 µM (inactive) in [16]; > 100 µM (inactive) in experiment [17]; 76 µM (inactive) in experiment [18]. Also, the GI50 in [19] was > 100 µM (inactive).

Values taken from ChEMBL document CHEMBL1201862, “PubChem BioAssay data set” (2004).
